Laboratory results as given in patent US20230067666A1, “METHOD FOR PREPARING COUMARIN COMPOUNDS SUBSTITUTED BY AMIDOALKYL AT 3-POSITION, THE PRODUCTS AND RELATED INTERMEDIATES THEREOF” (Fosun Orinove PharmaTech, Inc., priority 2019, published 2023).
Values joined by “and” are separate entries in the source; they are usually repeats but may differ in a detail not shown here. Equal entries are not always repeated.

Key:
Assay type in all cases: physicochemical
[1] = crystal form I stability test (HPLC purity and XRPD after storage); settings: for chemical and physical stability (result in words): 40° C./75% RH and 60° C. for 14 days, HPLC purity and XRPD
Description: X-ray powder diffractometer: Bruker D8 advance X, the radiation source is Cu-Ku, the scanning range of the test is 3° (2θ)˜40° (2θ), the scanning step size is 0.02° (2θ), and the scanning rate is 0.3 sec/step. HPLC (purity determination): Waters Acquity Arc liquid chromatography system or any equivalent; Column: EclipsexDB C18, 4.6×150 mm, 3.5 μm, or any equivalent; Column temperature: 30° C.; detection wavelength: 210 nm; mobile phase A: 0.05% trifluoroacetic acid aqueous solution; mobile phase B: 0.05% trifluoroacetic acid acetonitrile solution; concentration gradient running time: 20 minutes. Two samples of the crystal form I were placed under the conditions of 40° C./75% relative humidity (RH), and the temperature in the oven was 60° C. (with humidity not controlled) for 14 days.

[2] = dynamic vapor sorption (DVS) test; settings: for hygroscopicity (result in words): DVS
From the text: Dynamic Vapor Sorption (DVS) is a common method to investigate the moisture adsorption of drugs, excipients or packaging materials through a dynamically accelerated moisture adsorption process. The moisture adsorption isotherm is usually used to describe the degree of correlation between the moisture content of the sample and the relative humidity during the moisture adsorption process of the sample. DVS patterns can be measured, for example, on a model IGAsorp instrument. In one embodiment, the dynamic vapor sorption pattern of the crystal form I is determined by the following method: DVS dynamic vapor sorption instrument: IGAsorp; temperature: 25° C.; temperature stability: 0.1° C./min; carrier gas: nitrogen; flow rate: 250 mL/min; scanning: 2; minimum time: 30 min; maximum time: 2 hours; upper waiting limit: 98%; humidity gradient: adsorption: 0, 10, 20, 30, 40, 50, 60, 70, 80, 90; desorption: 80, 70, 60, 50, 40, 30, 20, 10, 0. DVS Dynamic Vapor Sorption Apparatus: IGAsorb, the temperature is 25° C., the temperature stability: 0.1° C./min, the carrier gas is nitrogen, the flow rate is 250 mL/min, scanning: 2, the minimum time is 30 min, the maximum time is 2 hours, the upper waiting limit is 98%, humidity gradient: adsorption: 0, 10, 20, 30, 40, 50, 60, 70, 80, 90; desorption: 80, 70, 60, 50, 40, 30, 20, 10, 0.

[3] = thermogravimetric analysis (TGA) test; settings: heated to 200° C.
From the text: Thermogravimetric analysis (TGA) is a common method for determining the thermal stability of compounds. Herein, TGA is also used to determine the hydration state of a compound. The rate of temperature rise during the test have a certain impact on the pattern. For example, an excessively high rate of temperature rise is not conducive to the detection of intermediate products. TGA patterns can be measured, for example, on a model TA TGA Q500 instrument. In one embodiment, the thermogravimetric analysis pattern of the crystal form I is determined by the following method: TGA thermogravimetric analyzer: TA TGA Q500; temperature range: room temperature ˜350° C.; scanning rate: 10° C./min; protective gas: nitrogen; flow rate: 40 mL/min (balance) or […] (sample). TGA Thermogravimetric Analyzer: TA TGA Q500, temperature range is from room temperature to 350° C., scanning rate is 10° C./min, the protective gas is nitrogen, and the flow rate is 40 mL/min (balance) or 60 mL/min (sample).

[4] = particle size distribution (PSD) test
Description: In one embodiment, the particle size distribution (PSD) of the crystal form I is determined using a Malvern Mastersizer 2000. The parameters used may be: pump speed: 2500 rpm; dispersant volume: 800 mL; dispersant: water; dispersion medium: 1% Tween 80. Crystal form I is a granular crystal, and the particle size is 50-100 μm observed under a microscope (Nikon Eclipse LV100POL). The particle size distribution (PSD) of the crystal form I was determined using a Malvern Mastersizer 2000. Pump speed: 2500 rpm; Dispersant volume: 800 mL; Shielding degree: 10%-20%; Dispersant: water; Dispersion medium: 1% Tween 80; Background measurement: 12s; Sample measurement: 12s; Measurement cycle: 3.

[5] = powder properties (bulk density, tap density, Carr index, angle of repose)
[6] = test of stability against mechanical treatment (grinding, XRPD); settings: ground in a mortar for 2 min and 5 min
Description: In one embodiment, the stability of the crystal form I against mechanical treatment is determined by the following method: the crystal form I is placed in a mortar, ground for 2 min and 5 min respectively, and XRPD detection is carried out to analyze the solid after grinding. The crystal form I was placed in a mortar, ground for 2 min and 5 min, respectively, and XRPD detection was carried out to analyze the solid after grinding.

[7] = Malvern Mastersizer 2000, dispersant water, 1% Tween 80

- chemical and physical stability (result in words) [1]: good chemical and physical stability
- chemical and physical stability (result in words) ([1]; listed as Orin1001 crystal form I): excellent stability
- HPLC purity: peak area % ([1]; 40° C./75% RH, the 7th day): 99.62% and 99.54%
- HPLC purity: peak area % ([1]; 40° C./75% RH, the 14th day): 99.54% and 99.56%
- HPLC purity: peak area % ([1]; 60° C. (in oven), humidity not controlled, the 7th day): 99.64% and 99.58%
- HPLC purity: peak area % ([1]; 60° C. (in oven), humidity not controlled, the 14th day): 99.52% and 99.54%
- HPLC purity: peak area % ([1]; TO column of the 7th day table): 99.60% and 99.58%
- HPLC purity: peak area % ([1]; TO column of the 14th day table): 99.53% and 99.54%
- hygroscopicity (result in words) ([2]; 25° C.): only slightly hygroscopic
- hygroscopicity (result in words) ([2]; 25° C., listed as Orin1001 crystal form I): slightly hygroscopic
- crystal form after DVS measurement (XRPD) ([2]; XRPD before and after DVS): did not change
- weight gain (DVS) ([2]; after equilibration at 90% relative humidity, 25° C.): 0.34%
- weight loss (TGA) [3]: about 0.017%
- D(0.1) [4, 7]: 67.1 μm
- D(0.5) [4, 7]: 115.5 μm
- D(0.9) [4, 7]: 206.4 μm
- particle size observed under a microscope ([4]; Nikon Eclipse LV100POL): 50-100 μm
- Carr index [5]: 20%
- angle of repose [5]: 30.6 °
- bulk density [5]: 0.72 g/mL
- fluidity (result in words) [5]: very good
- tap density [5]: 0.90 g/mL
- crystal form after grinding (XRPD) [6]: the crystal form does not change
SMILES: COc1cc2c(C)c(CC(=O)N3CCOCC3)c(=O)oc2c(C=O)c1O [crystal form I]
